Read-outs that look alike come from different tables or passages of the source.
Tests used:
CRBN-DDB1 = CRBN-DDB1 (Homo sapiens (Human), UniProt Q96SW2); experiment: Compound binding to CRBN by HTRF assay
Outline: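 Ki calculated via Cheng-Prusoff from geometric-mean EC50 values, after normalizing the HTRF ratio to lenalidomide (active) and DMSO (neutral) controls. Compounds (11 points, 1:3 steps) incubated 30 min at ambient temperature with CRBN-DDB1 2.5 nM, anti-His Tb cryptate and Cy5-thalidomide tracer 100 nM.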

NEK7 = NEK7 (Homo sapiens (Human), UniProt Q8TDX7+Q96SW2); experiment: NEK7 NanoBiT degradation assay in Cal51 NEK7 NanoBiT cell line; format: cell-based; details: Cal51 NEK7 NanoBiT cells, 24 hours; for Dmax: CAL-51
Outline: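 EC50 comes from a 4-parameter fit of control-normalized luminescence. The luminescence reports HiBiT-NEK7 (endogenous knock-in) complemented by stably expressed LgBiT in Cal51 cells after 24 h compound exposure at 37 °C. Final concentrations ran 1 μM to 0.05 nM, with Endurazine substrate present in the medium throughout.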

IL-1β release = IL-1β release in human monocyte-derived macrophages, LPS/nigericin stimulation; format: cell-based; details: Macrophage, 24 h pre-treatment, LPS 3 h then 10 μM nigericin 1 h, read-out: IL-1b IC50 (NIG)
Protocol: (§1) Human monocytes were enriched and isolated from a buffy coat of healthy donor whole blood with a RosetteSep™ Human Monocyte Enrichment Cocktail (Cat.No. 15068, StemCell) and Ficoll-Plaque PLUS (Cat.No. H8889, Sigma). Monocytes were differentiated into macrophages by treatment with 100 ng/mL M-CSF for 6 days at 37° C., 5% CO2. Differentiated macrophages were seeded overnight (50,000 cells/well) in 100 µL of medium in a 96-well, white-bottom plate at 37° C., 5% CO2. Cells were treated with a concentration range of MGD for 24 hours prior to stimulation with nigericin. Macrophages were primed with […] LPS for 3 h followed by 1 h stimulation with 10 μM nigericin. Media of stimulated macrophages were collected and assayed for caspase 1 activity directly (Promega G9951), according to manufacturer's instructions. For IL-1β release assay, media of stimulated macrophages were collected and stored at −20° C., then thawed at 4° C. before assaying for IL-1β activity (Promega W6011), according to manufacturer's instructions.

Caspase-1 activity = Caspase-1 activity in human monocyte-derived macrophages, LPS/nigericin stimulation; format: cell-based; details: Macrophage, 24 h pre-treatment, LPS 3 h then 10 μM nigericin 1 h, read-out: Caspase-1 IC50 (NIG)
Protocol: as §1

[1] = NEK7 degradation, read-out: NanoBiT Dmax
[2] = NEK7 degradation, read-out: NanoBiT DC50

CRBN-DDB1, sequence (Q96SW2 whole entry): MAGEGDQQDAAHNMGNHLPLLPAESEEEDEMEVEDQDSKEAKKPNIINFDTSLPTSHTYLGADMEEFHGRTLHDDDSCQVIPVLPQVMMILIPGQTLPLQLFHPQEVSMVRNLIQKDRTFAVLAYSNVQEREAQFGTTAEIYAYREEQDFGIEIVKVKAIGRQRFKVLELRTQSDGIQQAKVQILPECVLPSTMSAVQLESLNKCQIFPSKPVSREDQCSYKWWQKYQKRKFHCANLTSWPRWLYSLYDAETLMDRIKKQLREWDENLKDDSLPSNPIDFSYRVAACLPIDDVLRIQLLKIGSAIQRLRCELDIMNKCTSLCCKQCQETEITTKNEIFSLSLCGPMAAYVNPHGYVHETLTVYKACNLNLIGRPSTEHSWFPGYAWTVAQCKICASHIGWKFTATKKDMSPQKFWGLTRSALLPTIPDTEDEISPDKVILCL
CRBN-DDB1, sequence (Q16531 whole entry partner): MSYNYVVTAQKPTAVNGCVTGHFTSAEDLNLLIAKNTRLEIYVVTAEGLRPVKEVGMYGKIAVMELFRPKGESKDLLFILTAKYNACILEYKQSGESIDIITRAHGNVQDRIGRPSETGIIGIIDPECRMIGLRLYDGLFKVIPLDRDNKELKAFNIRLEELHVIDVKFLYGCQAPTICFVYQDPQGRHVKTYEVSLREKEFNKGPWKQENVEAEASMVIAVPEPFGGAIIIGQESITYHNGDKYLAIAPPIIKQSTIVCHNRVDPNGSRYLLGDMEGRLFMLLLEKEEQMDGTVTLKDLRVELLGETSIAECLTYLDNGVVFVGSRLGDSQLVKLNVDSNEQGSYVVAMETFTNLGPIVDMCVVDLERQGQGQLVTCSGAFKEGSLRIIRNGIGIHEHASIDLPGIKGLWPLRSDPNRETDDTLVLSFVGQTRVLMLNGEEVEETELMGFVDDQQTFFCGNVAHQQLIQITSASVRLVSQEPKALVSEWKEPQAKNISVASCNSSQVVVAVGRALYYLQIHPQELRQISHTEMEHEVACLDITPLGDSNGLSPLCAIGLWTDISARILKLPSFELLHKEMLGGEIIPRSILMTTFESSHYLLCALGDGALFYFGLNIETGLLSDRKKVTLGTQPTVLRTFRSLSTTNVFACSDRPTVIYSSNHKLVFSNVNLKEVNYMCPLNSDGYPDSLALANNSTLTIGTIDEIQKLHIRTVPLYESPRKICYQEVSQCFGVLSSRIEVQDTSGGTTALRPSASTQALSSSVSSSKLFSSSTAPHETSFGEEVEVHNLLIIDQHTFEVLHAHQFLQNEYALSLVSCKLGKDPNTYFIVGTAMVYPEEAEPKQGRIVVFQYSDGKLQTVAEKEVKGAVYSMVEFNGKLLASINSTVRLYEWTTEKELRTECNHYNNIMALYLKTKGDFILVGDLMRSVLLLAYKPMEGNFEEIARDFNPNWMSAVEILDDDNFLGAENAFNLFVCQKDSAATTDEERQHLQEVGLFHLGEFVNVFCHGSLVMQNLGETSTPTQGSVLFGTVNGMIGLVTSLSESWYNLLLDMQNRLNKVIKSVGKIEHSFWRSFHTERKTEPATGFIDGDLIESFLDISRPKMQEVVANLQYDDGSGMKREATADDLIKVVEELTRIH
NEK7, sequence (Q8TDX7 whole entry): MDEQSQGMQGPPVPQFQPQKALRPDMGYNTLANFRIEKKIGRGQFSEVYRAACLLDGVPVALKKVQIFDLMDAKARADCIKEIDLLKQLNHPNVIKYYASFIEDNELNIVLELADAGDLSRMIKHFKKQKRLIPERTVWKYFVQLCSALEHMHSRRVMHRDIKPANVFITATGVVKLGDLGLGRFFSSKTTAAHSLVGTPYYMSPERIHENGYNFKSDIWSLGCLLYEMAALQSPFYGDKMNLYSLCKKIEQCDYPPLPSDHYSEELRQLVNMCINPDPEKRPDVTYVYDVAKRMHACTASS
NEK7, sequence (Q96SW2 whole entry): as the sequence (Q96SW2 whole entry) above
NEK7, sequence (Q16531 2-1140 partner): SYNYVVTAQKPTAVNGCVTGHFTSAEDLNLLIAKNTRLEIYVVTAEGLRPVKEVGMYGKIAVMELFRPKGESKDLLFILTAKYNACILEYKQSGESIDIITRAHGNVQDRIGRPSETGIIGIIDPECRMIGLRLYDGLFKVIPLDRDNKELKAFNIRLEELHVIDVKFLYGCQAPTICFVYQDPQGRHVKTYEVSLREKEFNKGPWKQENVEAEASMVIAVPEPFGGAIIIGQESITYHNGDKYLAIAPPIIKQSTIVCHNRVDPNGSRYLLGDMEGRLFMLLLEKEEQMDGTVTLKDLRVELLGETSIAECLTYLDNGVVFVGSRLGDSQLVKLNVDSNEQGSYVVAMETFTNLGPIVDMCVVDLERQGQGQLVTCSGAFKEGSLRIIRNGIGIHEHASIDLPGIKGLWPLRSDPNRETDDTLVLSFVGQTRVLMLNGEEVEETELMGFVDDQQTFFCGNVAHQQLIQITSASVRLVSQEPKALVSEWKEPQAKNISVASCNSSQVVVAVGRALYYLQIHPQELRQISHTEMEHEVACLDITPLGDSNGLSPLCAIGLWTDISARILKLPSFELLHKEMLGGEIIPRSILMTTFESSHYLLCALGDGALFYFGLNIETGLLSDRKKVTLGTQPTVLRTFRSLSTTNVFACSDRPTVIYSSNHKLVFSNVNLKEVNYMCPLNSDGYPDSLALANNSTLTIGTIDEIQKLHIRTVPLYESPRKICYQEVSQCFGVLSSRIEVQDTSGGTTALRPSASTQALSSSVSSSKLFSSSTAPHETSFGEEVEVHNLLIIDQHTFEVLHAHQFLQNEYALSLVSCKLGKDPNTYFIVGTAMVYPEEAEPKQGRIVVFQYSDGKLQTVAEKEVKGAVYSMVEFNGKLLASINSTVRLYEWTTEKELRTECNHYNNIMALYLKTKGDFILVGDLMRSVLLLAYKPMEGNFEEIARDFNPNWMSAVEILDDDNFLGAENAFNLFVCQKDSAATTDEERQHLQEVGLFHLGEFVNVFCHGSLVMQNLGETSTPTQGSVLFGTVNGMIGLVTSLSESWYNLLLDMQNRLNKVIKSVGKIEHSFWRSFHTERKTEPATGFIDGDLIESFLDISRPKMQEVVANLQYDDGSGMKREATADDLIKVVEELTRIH

Row | SMILES | EC50 (CRBN-DDB1) | EC50 (CRBN-DDB1; HTRF class, Cereblon binding) | Dmax (NEK7; read-out: NEK7 NanoBiT Dmax) | Dmax (NEK7; [1]) | DC50 (NEK7; read-out: NEK7 NanoBiT DC50) | DC50 (NEK7; [2]) | IC50 (IL-1β release) | IC50 (Caspase-1 activity)
1 | CC(C)(C(=O)NCc1cc(Cl)c(C2CCC(=O)NC2=O)c(Cl)c1)c1ncccn1 (stereo not drawn) [Compound 34] | 140 nM | 100 to 1000 nM | 78% | > 75% | 28 nM | ≤ 100 nM | 7.36 nM | 7.25 nM
2 | CC(C)(C(=O)NCc1cc(Cl)c(C2CCC(=O)NC2=O)c(Cl)c1)c1ccnc(C(F)(F)F)c1 (stereo not drawn) [Compound 97] | 170 nM | 100 to 1000 nM | 76% | > 75% | 50 nM | ≤ 100 nM | 5.23 nM | 5.84 nM
3 | Cc1cnc(C(C)(C)C(=O)NCc2cc(F)c(C3CCC(=O)NC3=O)c(Cl)c2)o1 (stereo not drawn) [Compound 270, N-(3-chloro-4-(2,6-dioxopiperidin-3-yl)-5-fluorobenzyl)-2-methyl-2-(5-methyloxazol-2-yl)propanamide] | 190 nM | 100 to 1000 nM | 72% | 50 to 75% | 73 nM | ≤ 100 nM |  | 
4 | Cc1cnc(C(C)(C)C(=O)NCc2cc(C)c(C3CCC(=O)NC3=O)c(Cl)c2)nc1 (stereo not drawn) [Compound 271] | 520 nM | 100 to 1000 nM | 68% | 50 to 75% | 213 nM | 100 to 1000 nM |  | 
5 | CC(C)(C(=O)NCc1cc(F)c(C2CCC(=O)NC2=O)c(Cl)c1)c1ccc(OC(F)(F)F)nn1 (stereo not drawn) [Compound 272] | 230 nM | 100 to 1000 nM | 57% | 50 to 75% | 312 nM | 100 to 1000 nM |  | 
6 | Cc1ccc(C(C)(C)C(=O)NCc2cc(F)c(C3CCC(=O)NC3=O)c(Cl)c2)nn1 (stereo not drawn) [Compound 275] | 210 nM | 100 to 1000 nM | 61% | 50 to 75% | 190 nM | 100 to 1000 nM |  | 
7 | CC(C)(C(=O)NCc1cc(F)c(C2CCC(=O)NC2=O)c(Cl)c1)c1ccc(OC(F)F)nn1 (stereo not drawn) [Compound 276] | 190 nM | 100 to 1000 nM | 79% | > 75% | 33 nM | ≤ 100 nM |  | 
8 | CC(F)(F)c1ccc(C(C)(C)C(=O)NCc2cc(F)c(C3CCC(=O)NC3=O)c(Cl)c2)nn1 (stereo not drawn) [Compound 277] | 180 nM | 100 to 1000 nM | 61% | 50 to 75% | 155 nM | 100 to 1000 nM |  | 
9 | CC(C)(C(=O)NCc1cc(F)c(C2CCC(=O)NC2=O)c(Cl)c1)c1nocc1C(F)(F)F (stereo not drawn) [Compound 278] | 190 nM | 100 to 1000 nM | 71% | 50 to 75% | 76 nM | ≤ 100 nM |  | 
10 | Cc1conc1C(C)(C)C(=O)NCc1cc(F)c(C2CCC(=O)NC2=O)c(Cl)c1 (stereo not drawn) [Compound 279] | 350 nM | 100 to 1000 nM | 54% | 50 to 75% | 672 nM | 100 to 1000 nM |  | 
11 | CC(C)(C(=O)NCc1cc(F)c(C2CCC(=O)NC2=O)c(Cl)c1)c1ccc(C(F)F)nn1 (stereo not drawn) [Compound 280] | 290 nM | 100 to 1000 nM | 60% | 50 to 75% | 143 nM | 100 to 1000 nM |  | 
12 | Cc1ncc(C(C)(C)C(=O)NCc2cc(F)c(C3CCC(=O)NC3=O)c(Cl)c2)o1 (stereo not drawn) [Compound 281] | 260 nM | 100 to 1000 nM | 67% | 50 to 75% | 179 nM | 100 to 1000 nM |  | 

Stronger by EC50 (CRBN-DDB1), values ahead:

Row | EC50 (CRBN-DDB1) | EC50 (CRBN-DDB1; HTRF class, Cereblon binding) | Dmax (NEK7; read-out: NEK7 NanoBiT Dmax) | Dmax (NEK7; [1]) | DC50 (NEK7; read-out: NEK7 NanoBiT DC50) | DC50 (NEK7; [2]) | IC50 (IL-1β release) | IC50 (Caspase-1 activity) | SMILES
13 | 110 nM | 100 to 1000 nM | 78% | > 75% | 26 nM | ≤ 100 nM |  |  | Cc1ncc(C(C)(C)C(=O)NCc2cc(Cl)c(C3CCC(=O)NC3=O)c(Cl)c2)o1 (stereo not drawn) [Compound 282]
14 | 100 nM | ≤ 100 nM | 92% | > 75% | 6 nM | ≤ 100 nM | 1.21 nM | 0.82 nM | Cc1cc(C(C)(C)C(=O)NCc2cc(Cl)c(C3CCC(=O)NC3=O)c(Cl)c2)ccn1 (stereo not drawn) [Compound 95]
15 | 80 nM | ≤ 100 nM | 97% | > 75% | 1 nM | ≤ 100 nM | 0.2 nM | 0.13 nM | CC(C)(C(=O)NCc1cc(Cl)c(C2CCC(=O)NC2=O)c(Cl)c1)c1ccc(F)cc1 (stereo not drawn) [Compound 96]
16 | 80 nM | ≤ 100 nM | 92% | > 75% | 3 nM | ≤ 100 nM | 0.41 nM | 0.54 nM | CC(C)(C(=O)NCc1cc(Cl)c(C2CCC(=O)NC2=O)c(Cl)c1)c1ccncc1 (stereo not drawn) [Compound 108]
17 | 70 nM | ≤ 100 nM | 97% | > 75% | 2 nM | ≤ 100 nM | 0.83 nM | 0.49 nM | CC(C)(C(=O)NCc1cc(Cl)c(C2CCC(=O)NC2=O)c(Cl)c1)c1ccc(S(N)(=O)=O)cc1 (stereo not drawn) [Compound 76]
18 | 70 nM | ≤ 100 nM | 92% | > 75% | 4 nM | ≤ 100 nM | 0.9 nM | 0.45 nM | CC(C)(C(=O)NCc1cc(Cl)c(C2CCC(=O)NC2=O)c(Cl)c1)c1ccnc(F)c1 (stereo not drawn) [Compound 93]
19 | 70 nM | ≤ 100 nM | 98% | > 75% | 1 nM | ≤ 100 nM | 0.1 nM |  | CC(C)(C(=O)NCc1cc(Cl)c(C2CCC(=O)NC2=O)c(Cl)c1)c1c(F)cccc1F (stereo not drawn) [Compound 94]
20 | 30 nM | ≤ 100 nM | 97% | > 75% | 1 nM | ≤ 100 nM | 0.31 nM | 0.14 nM | CC(C)(C(=O)NCc1cc(Cl)c(C2CCC(=O)NC2=O)c(Cl)c1)c1ccccc1 (stereo not drawn) [Compound 37, N-(3,5-dichloro-4-(2,6-dioxopiperidin-3-yl)benzyl)-2-methyl-2-phenylpropanamide]
21 | 20 nM | ≤ 100 nM | 98% | > 75% | 0.1 nM | ≤ 100 nM | 0.03 nM |  | CC(C)(C(=O)NCc1cc(Cl)c(C2CCC(=O)NC2=O)c(Cl)c1)c1ccc2ocnc2c1 (stereo not drawn) [Compound 17]

Source: patent US20250243180A1, “TARGETED PROTEIN DEGRADATION” (Monte Rosa Therapeutics AG, priority 2023, published 2025)
